In patent US9993494B2, “Compositions and methods for treating fibrotic disease” (eFFECTOR Therapeutics, Inc., priority 2014, dated 2018):

Tested on: normal human lung fibroblasts
Test: Ribosomal profiling: translational efficiency in TGFβ-treated fibroblasts
Format: cell-based
Settings: TGFβ-treated fibroblasts
Experimental: Ribosomal profiling allows for measurement of changes in transcription and translation on a genome-wide basis accompanying TGFβ-dependent transformation of fibroblasts to myofibroblasts. Ribosomal profiles of the TGFβ-treated fibroblasts from Example 1 (about 6×10^6 cells/10 cm plate) were prepared and analyzed for changes in translational efficiencies with respect to potential disease-associated cellular changes accompanying this TGFβ-induced transformation.
Briefly, cells were washed with cold PBS supplemented with cycloheximide and lysed with 1× mammalian cell lysis buffer for 10 minutes on ice. Lysates were clarified by centrifugation for 10 minutes at 14,000 rpm and supernatants were collected. Cell lysates were processed to generate ribosomal protected fragments and total mRNA according to the instructions included with the ARTseq Ribosome Profiling Kit (Illumina, San Diego, Calif.). Sequencing of total RNA (RNA) and of ribosome-protected fragments of RNA (RPF) was carried out using RNA-Seq methodology according to the manufacturer's instructions (Illumina). To analyze the ribosomal profiles, RNA-Seq reads were processed with tools from the FASTX-Toolkit (fastq_quality_trimmer, fastx_clipper and fastx_trimmer). Unprocessed and processed reads were evaluated for a variety of quality measures using FastQC, and processed reads were mapped to the human genome using TopHat (see, e.g., Trapnell et al., Bioinformatics 25:1105, 2009). Gene-by-gene assessment of the number of fragments strictly and uniquely mapping to the coding region of each gene was conducted using HTSeq-count, a component of the HTSeq package. […] Genes with low counts in either RPF or RNA were excluded from differential analyses. Pathway and network analyses of differential data were conducted using Ingenuity Pathway Analysis (IPA).

SMILES: CC(C=CC(=O)NO)=CC(C)C(=O)c1ccc(N(C)C)cc1 (stereo not drawn) [TSA, 7-[4-(dimethylamino)phenyl]-N-hydroxy-4,6-dimethyl-7-oxohepta-2,4-dienamide]
- renormalizing the translational profile of RPL9 (ENSG00000163682): − (− = <0.9)
- renormalizing the translational profile of RHOBTB3 (ENSG00000164292): − (− = <0.9)
- renormalizing the translational profile of RPL36AL (ENSG00000165502): − (− = <0.9)
- renormalizing the translational profile of RPL27A (ENSG00000166441): − (− = <0.9)
- renormalizing the translational profile of RP11-382A20.3.1 (ENSG00000166503): − (− = <0.9)
- renormalizing the translational profile of ANKDD1A (ENSG00000166839): − (− = <0.9)
- renormalizing the translational profile of RPL13 (ENSG00000167526): − (− = <0.9)
- renormalizing the translational profile of EEF2 (ENSG00000167658): + (+ = 0.9 to 1.5)
- renormalizing the translational profile of CA5B (ENSG00000169239): + (+ = 0.9 to 1.5)
- renormalizing the translational profile of KIAA1024 (ENSG00000169330): − (− = <0.9)
- renormalizing the translational profile of MURC (ENSG00000170681): + (+ = 0.9 to 1.5)
- renormalizing the translational profile of HTRA3 (ENSG00000170801): − (− = <0.9)
- renormalizing the translational profile of PDE7B (ENSG00000171408): ++ (++ = 1.5 to 2.0)
- renormalizing the translational profile of LPAR3 (ENSG00000171517): ++ (++ = 1.5 to 2.0)
- renormalizing the translational profile of CTPS (ENSG00000171793): − (− = <0.9)
- renormalizing the translational profile of QARS (ENSG00000172053): − (− = <0.9)
- renormalizing the translational profile of RPL38 (ENSG00000172809): − (− = <0.9)
- renormalizing the translational profile of MRPL45 (ENSG00000174100): − (− = <0.9)
- renormalizing the translational profile of RPL4 (ENSG00000174444): − (− = <0.9)
- renormalizing the translational profile of RPL15 (ENSG00000174748): − (− = <0.9)
- renormalizing the translational profile of DES (ENSG00000175084): − (− = <0.9)
- renormalizing the translational profile of EIF3F (ENSG00000175390): − (− = <0.9)
- renormalizing the translational profile of CLCF1 (ENSG00000175505): + (+ = 0.9 to 1.5)
- renormalizing the translational profile of AMIGO3 (ENSG00000176020): + (+ = 0.9 to 1.5)
- renormalizing the translational profile of C14orf49 (ENSG00000176438): − (− = <0.9)
- renormalizing the translational profile of RPLP2 (ENSG00000177600): − (− = <0.9)
- renormalizing the translational profile of IMPDH2 (ENSG00000178035): − (− = <0.9)
- renormalizing the translational profile of DNAJC22 (ENSG00000178401): − (− = <0.9)
- renormalizing the translational profile of RPL35A (ENSG00000182899): − (− = <0.9)
- renormalizing the translational profile of LENG9 (ENSG00000182909): − (− = <0.9)
- renormalizing the translational profile of C22orf32 (ENSG00000183172): − (− = <0.9)
- renormalizing the translational profile of NPW (ENSG00000183971): − (− = <0.9)
- renormalizing the translational profile of PDE4B (ENSG00000184588): + (+ = 0.9 to 1.5)
- renormalizing the translational profile of ROBO2 (ENSG00000185008): − (− = <0.9)
- renormalizing the translational profile of PTCH1 (ENSG00000185920): − (− = <0.9)
- renormalizing the translational profile of POLR1D (ENSG00000186184): − (− = <0.9)
- renormalizing the translational profile of DYNC2H1 (ENSG00000187240): − (− = <0.9)
- renormalizing the translational profile of RPL14 (ENSG00000188846): + (+ = 0.9 to 1.5)
- renormalizing the translational profile of LRRK2 (ENSG00000188906): − (− = <0.9)
- renormalizing the translational profile of NACA (ENSG00000196531): − (− = <0.9)
- renormalizing the translational profile of LAMB3 (ENSG00000196878): − (− = <0.9)
- renormalizing the translational profile of PCBP2 (ENSG00000197111): + (+ = 0.9 to 1.5)
- renormalizing the translational profile of MAP3K5 (ENSG00000197442): + (+ = 0.9 to 1.5)
- renormalizing the translational profile of RPL37A (ENSG00000197756): − (− = <0.9)
- renormalizing the translational profile of RPL12 (ENSG00000197958): − (− = <0.9)
- renormalizing the translational profile of LPAR1 (ENSG00000198121): − (− = <0.9)
- renormalizing the translational profile of RPL23A (ENSG00000198242): − (− = <0.9)
- renormalizing the translational profile of PLN (ENSG00000198523): − (− = <0.9)
- renormalizing the translational profile of RPL10A (ENSG00000198755): − (− = <0.9)
- renormalizing the translational profile of CES1 (ENSG00000198848): − (− = <0.9)
- renormalizing the translational profile of RPL39 (ENSG00000198918): − (− = <0.9)
- renormalizing the translational profile of CARD16 (ENSG00000204397): − (− = <0.9)
- renormalizing the translational profile of MICA (ENSG00000204520): − (− = <0.9)
- renormalizing the translational profile of GNB2L1 (ENSG00000204628): − (− = <0.9)
- renormalizing the translational profile of RPL17 (ENSG00000215472): − (− = <0.9)
- renormalizing the translational profile of RPL41 (ENSG00000229117): − (− = <0.9)
- renormalizing the translational profile of ARPC1A (ENSG00000241685): + (+ = 0.9 to 1.5)
- renormalizing the translational profile of CHCHD10 (ENSG00000250479): − (− = <0.9)
- renormalizing the translational profile of EEF1G (ENSG00000254772): − (− = <0.9)
- number of genes whose translational efficiency was uniquely modulated by the compound (duplicate ribosomal profiles): 13 genes
- effect in renormalizing the translational profile of the gene (gene RPS2 (ENSG00000140988)): − (− = <0.9)
- effect in renormalizing the translational profile of the gene (gene RPS3 (ENSG00000149273)): − (− = <0.9)
- effect in renormalizing the translational profile of the gene (gene RPS3A (ENSG00000145425)): − (− = <0.9)
- effect in renormalizing the translational profile of the gene (gene RPS4X (ENSG00000198034)): − (− = <0.9)
- effect in renormalizing the translational profile of the gene (gene RPS4Y1 (ENSG00000129824)): − (− = <0.9)
- effect in renormalizing the translational profile of the gene (gene RPS5 (ENSG00000083845)): − (− = <0.9)
